Test results from patent US20090130064A1, “DIFFERENTIATION OF STEM CELLS AND STABILIZATION OF PHENOTYPICAL PROPERTIES OF PRIMARY CELLS” (priority 2004, published 2009).

Tests used:
[1] = test system: glutathione S-transferase (GST); experiment: Total cytosolic GST activity in cultured rat hepatocytes; format: cell-based; conditions: TSA starting at 4 hours; day 4 and 7
From the text: (§1) Hepatocytes were isolated from male Sprague-Dawley rats by a two-step collagenase perfusion as described (De Smet et al. In ‘Methods in Molecular Biology, Vol. 107: Cytochrome P450 Protocols’, Philips IR and Shephard E A, eds., p.p 295-301, Humana Press, Totowa, 1998). Hepatocytes were cultivated in monolayer cultures with Willam's E Medium (WE) for 7 days. […] The maintenance of differentiation characteristics was studied after 2, 4, and 7 days (D2, D4, D7) of culture.
(§2) In order to investigate Phase II biotransformation, total cytosolic glutathione S-transferase (GST) activity and activities of individual GSTA, GSTP, and GSTM iso-enzymes were measured using standard techniques known in the art. (i.e., measuring conjugation of reduced glutathione with 1-chloro-2,4-dinitrobenzene for total GST; measuring conjugation of reduced glutathione with 7-chloro-4-nitrobenzo-2-oxa-1,3-diazole for GSTA activity; measuring conjugation of reduced glutathione with ethacrynic acid for GSTP activity; and measuring conjugation of reduced glutathione with 1,2-dichloro-4-nitrobenzene for GSTM activity).

GSTA = GSTA iso-enzyme activity in cultured rat hepatocytes; format: cell-based; conditions: TSA treatment
From the text: as §1, §2

GSTM = GSTM iso-enzyme activity in cultured rat hepatocytes; format: cell-based; conditions: TSA started at 4 h; day 4 and 7
From the text: as §1, §2

[2] = Biotransformation by rat liver microsomes; format: in vitro ADME; conditions: 140 μM TSA, 150 min
Experimental: Human liver specimens (n=3) were acquired from organ donors at the Academic Hospital of the VUB in accordance with the regulations of the local Medical Ethical Committee and immediately frozen in liquid nitrogen. While human liver microsomes were prepared from frozen liver tissue, rat livers (n=3) were freshly isolated for immediate microsome preparation. Microsomal 7-ethoxyresorufin-O-deethylase (EROD) [31]was used as a marker enzyme to evaluate the microsomal biotransformation activity before and after storage. Incubations were carried out in a 100 mM sodium potassium phosphate buffer pH 7.4 in the presence of a NADPH-generating system (0.5 mM NADP^+, 10 mM glucose 6-phosphate, 2 U/ml glucose 6-phosphate dehydrogenase and 0.6 mM MgCl2). Microsomes (0.0-2.0 mg microsomal protein/ml) were incubated with 140 μM substrate at 37° C. for 150 min. Boiled microsomes ([…]) served as a control. Biotransformation reactions were initiated by addition of substrate and, at selected time intervals, terminated by dilution with ice-cold acetonitrile (1:2.5).
After centrifugation (2000 g, 45 min, 4° C.) of the diluted microsomal samples, the clear supernatant was injected onto a HPLC column. Samples from incubations with hepatocytes were thawed on ice and centrifugated (120 g, 2 min). […]

Cx43 = Cx43 expression and localization (immunoblotting, immunocytochemistry) in rat hepatocytes; format: cell-based; conditions: 1 μM TSA
Experimental: (§3) In all conditions, the hepatocytes were cultivated as a monolayer configuration, and samples were taken at days 1, 4 and 7 (D1, D4, D7) of the cultivation time.
Proteins (25 or 50 μg) were resolved on SDS-PAGE (7.5, 10 or 12%) and blotted afterwards onto nitrocellulose membranes. After blocking with non-fatty milk, membranes were incubated with appropriate concentrations of primary and secondary antibodies (HRP labeled). Proteins were detected using the ECL detection system (Amersham Biosciences). Primary antibodies: Cx26 (Zymed, 1/250), Cx32 (Sigma, 1/500), Cx43 (Zymed, 1/100).
(§4) Hepatocytes were fixed with cold ethanol, peremeabilised with Triton X-100 (Sigma) and blocked with non-fatty milk. Following incubation with appropriate concentrations of primary and secondary antibodies (FITC or TRITC labeled), samples were mounted with DAPI-containing Vectashield (Vector Laboratories). Detection was performed by fluorescence microscopy (Leica DMR/XA).

[3] = test system: gap junctional intercellular communication; experiment: GJIC scrape loading/dye transfer assay; format: cell-based, rat; conditions: 1 μM TSA; from D4 on
Experimental: as §3
Scrape loading/dye transfer assay was performed as described by el-Fouly et al., 1987: 422-430. In brief, hepatocytes were scraped in the presence of 0.05% m/V Lucifer Yellow and incubated for 5 minutes at 37° C. The dye was then removed, cells were rinsed twice with PBS and fixed with 4% m/V paraformaldehyde. Evaluation was performed by fluorescence microscopy. The distance traveled by Lucifer Yellow from the scrape was used as a parameter to evaluate GJIC functionality.

histone H4 = experiment: Acetylated histone H4 by immunocytochemistry in rat hepatocytes; format: cell-based; conditions: 1 μM TSA
Experimental: as §3, §4

primary rat hepatocytes = experiment: FACS analysis of cell cycle distribution of primary rat hepatocytes; format: cell-based; conditions: 50 μM + EGF; 72 hours
Experimental: Ploidy of hepatocyte nuclei was measured by FACS analysis. After hypotonic swelling of the cells with 0.1% sodium citrate, cellular DNA was stained with propidium iodide (50 μg/ml) and analyzed on a FACStar^Plus (Beckton Dickinson Biosciences, San José, Calif., USA).

| Structure (SMILES) | total GST activity versus EtOH treated controls [1] | activity of GSTA iso-enzyme (GSTA) | activity of GSTM iso-enzyme (GSTM) | biotransformation in microsome suspensions [2] | expression of Cx43 (Cx43) | localization of Cx43 (Cx43) | GJIC activity [3] | acetylation of histone H4 (histone H4) | number of cells in G2/M (primary rat hepatocytes) | proportion of cells in G0/G1 (primary rat hepatocytes) |
| --- | --- | --- | --- | --- | --- | --- | --- | --- | --- | --- |
| CC(C=CC(=O)NO)=CC(C)C(=O)c1ccc(N(C)C)cc1 (stereo not shown) [TSA] | significantly higher | substantially unaffected | stimulated | slow and incomplete biotransformation | induces the expressions | cytosolic localization | increases GJIC activity | hyperacetylation | – | – |
| CN(C)c1ccc(C(=O)NCCCCC(=O)NO)cc1 [4-Me2N-BAVAH, 5-(4-dimethylaminobenzoyl)-aminovaleric acid hydroxamide] | – | – | – | – | – | – | – | – | significantly lower | significantly higher proportion |
